Active and inactive are the calls of the source.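 The calls were made as follows: active = compounds giving half or more protection of infected cells from virus-caused growth loss, again on retest; inactive = the rest.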
System: CEM cells HIV-1 protection, formazan growth assay
Test: NCI AIDS Antiviral Assay
Conditions: for IC50: measured here: growth of uninfected CEM cells
How it was run: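 CEM (human) cells, HIV-1 infected vs uninfected, 5-point dosing, formazan growth read-out. Retest threshold 50% protection.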

Compound	EC50	IC50	outcome
O=C1C=CC[C@H](/C=C/C[C@@H](O)C[C@H](O)/C=C/c2ccccc2)O1	> 200 µM	5.37 µM	–
O=C(CCCN1CCC(C(=O)c2ccc(F)cc2)CC1)c1ccc(F)cc1	> 24.5 µM	> 24.5 µM	–
CC(C)C(=Nc1ccc(Cl)c(Cl)c1)N(C)C	> 200 µM	> 100 µM	–
Clc1ccc(Cl)c(-c2csc(-c3cccnc3)n2)c1	> 200 µM	36.3 µM	–
Nc1ccc(N=Nc2ccc(-c3ccc(N=Nc4c(S(=O)(=O)O)cc5cc(S(=O)(=O)O)c(N=Nc6cccc([N+](=O)[O-])c6)c(N)c5c4O)cc3)cc2)c2cc(S(=O)(=O)O)ccc12	–	–	active
COc1cccc(C2c3cc4c(cc3OC(NNC(N)=O)C2C)OCO4)c1OC (stereo unspecified)	> 200 µM	8.13 µM	–
COC1=C(C)C(=O)c2nc(Cl)cc(C)c2C1=O	–	–	inactive
S=C1NCCS1	> 2090 µM	1170 µM	–
Cc1cc(C)c(-c2noc(-c3ccc(Cl)cc3)c2C2=NCCN2)c(C)c1	–	–	inactive
Clc1ccccc1-c1nn2c(CCCCCCCCc3nnc4sc(-c5ccccc5Cl)nn34)nnc2s1	> 200 µM	105 µM	–
CCCCCCCCCCCC1N=C(N)NC(CCCO)=C1C(=O)OC (stereo unspecified)	> 200 µM	3.47 µM	–
CN(C)C(=S)/N=c1\ss/c(=N\C(=S)N(C)C)n1-c1ccccc1	> 200 µM	191 µM	–
CCOC(=O)c1[nH]c(COC(C)=O)c(CCCOC(C)=O)c1CCCOC(C)=O	–	–	inactive
C[C@H](C(=O)C12CC3CC(CC(C3)C1)C2)[C@H](O)c1ccccc1	–	–	inactive
CN=C(NC#N)NCCSCc1nc[nH]c1C	> 389 µM	> 389 µM	–
CCOC(=O)CC(=O)Cc1oc2c(C(C)=O)c(O)c(C)c(O)c2c1C	> 200 µM	21.4 µM	–
Cn1c(=S)c2c(nc(SCCc3ccccc3)n2CCc2ccccc2)n(C)c1=O	> 200 µM	29.5 µM	–
CS(=O)(=O)O[C@H]1[C@H](O)c2ccccc2[C@@H]1N=[N+]=[N-]	> 200 µM	> 200 µM	–
O=C1C(=O)c2c(nc3ccccn23)-c2ccccc21	> 2 µM	0.427 µM	–
O=c1cc(-c2ccccc2)oc2c(O)c(O)cc(O)c12	> 186 µM	> 186 µM	–
C=CC[C@]12CC[C@H](O)[C@@]1(C)CCC(=O)/C2=N\N	–	–	inactive

Compound	EC50	IC50	outcome
C1CSCCSCCCSCCSCCCSCCSCCCSCCSC1	> 7.08 µM	> 7.08 µM	–
COC1(OC)N=C(N)C2(C#N)C(c3ccccc3)NC3=C(CCC3)C12C#N (stereo unspecified)	> 200 µM	> 200 µM	–
O=C1SC(=NC2CCCCC2)N(C2CCCCC2)/C1=C1\C(=O)SC(=NC2CCCCC2)N1C1CCCCC1	> 26.9 µM	> 26.9 µM	–
C(=C\c1ccnc2ccccc12)/c1ccc2c(c1)OCO2	–	66.1 µM	inactive
CO/C(=N\N=C\c1ccc(Cl)c(Cl)c1)c1ccncc1	> 23.4 µM	> 23.4 µM	–
COc1ccc2c(c1)CCc1[nH]c3ccccc3c1CCCC2	> 61.7 µM	57.5 µM	–
COc1ccc(-c2c(N)n(-c3cccc(C(=O)O)c3)c(=O)c3cc([N+](=O)[O-])ccc23)cc1	> 200 µM	129 µM	–
OC1CSc2nc3ccccc3n2C1 (stereo unspecified)	> 200 µM	> 200 µM	–
CCc1cccc(CC)c1NC(=O)C1=C(C)NC(C)=C(C(=O)Nc2c(CC)cccc2CC)C1c1ccc([N+](=O)[O-])cc1	> 44.7 µM	> 44.7 µM	–
CC(=O)Nc1ccccc1/C(C#N)=C/c1ccccc1	> 200 µM	> 200 µM	–
CC(C(=O)O)c1cnn(-c2ccccc2)c1-n1cccc1 (stereo unspecified)	–	–	inactive
O=C(/C=C/c1ccccc1)CCN1CCN(CCC(=O)/C=C/c2ccccc2)CC1	> 200 µM	1.51 µM	–
O=[N+]([O-])c1ccccc1Nc1ccccc1	–	–	inactive
CN(c1ccccc1)S(=O)(=O)c1ccc([N+](=O)[O-])cc1	> 200 µM	110 µM	–
Cc1oc2nc(N(C)C)nc(NN)c2c1C	–	–	inactive
CN(C)c1ccc(N=O)cc1	> 2 µM	1.12 µM	–
N#Cc1c(NC(=S)NC(=O)c2ccccc2)nc2c(c1-c1ccccc1)CCC2	> 100 µM	93.3 µM	–
Cc1cc(=O)oc2c(CNC(Cc3ccccc3)C(=O)O)c(O)ccc12 (stereo unspecified)	> 200 µM	> 200 µM	–
O=S(=O)(N=S(c1ccccc1)c1ccccc1)c1ccccc1	> 145 µM	> 145 µM	–
O=[N+]([O-])c1cc(Cl)ccc1OCc1ccccc1	–	–	inactive
CC1OC(OC2C(O)COC(OC3C(C)OC(OC4C(OC(=O)[C@]56CCC(C)(C)C[C@@H]5C5=CCC7[C@@]8(C)C[C@H](O)[C@H](OC9OC(CO)C(O)C(O)C9O)[C@@](C)(CO)[C@@H]8CC[C@@]7(C)[C@]5(C)CC6)OCC(O)C4O)C(O)C3OC3OCC(O)C(O)C3O)C2O)C(O)C(O)C1O (stereo partly specified)	> 58.9 µM	19.5 µM	–

Compound	EC50	IC50	outcome
CCCCCC(O)C1C(=O)OC(C)C(O)/C=C/C=C/C=C/C=C\C=C(\C)C(O)CC(O)CC(O)CC(O)CC(O)CC(O)CC1O (stereo unspecified)	> 200 µM	> 200 µM	–
CS(=O)(=O)c1ccc(SSc2ccc(S(C)(=O)=O)cc2[N+](=O)[O-])c([N+](=O)[O-])c1	–	–	inactive
NC(N)=NS(=O)(=O)c1ccc(NC(=O)c2cccc3c(NNc4ccc(C(=O)O)cc4)c4ccccc4nc23)cc1	> 200 µM	33.9 µM	–
Cn1c2c(cc(-c3ccccc3)c1=O)COc1ccccc1-2	> 89.1 µM	46.8 µM	–
COc1ccc(P2(=S)OCCOP(=S)(c3ccc(OC)cc3)S2)cc1 (stereo unspecified)	> 117 µM	3.98 µM	–
COC(=O)C1=CC2C(=O)c3ccccc3C1(c1ccccc1)N2C1CCCCC1 (stereo unspecified)	> 200 µM	21.4 µM	–
c1ccc2c(c1)oc1cc3c(cc12)n1nnnc1c1cccn31	> 200 µM	> 200 µM	–
O=[N+]([O-])c1ccc(-n2nnc(C3=NCCN3)c2-c2ccccc2)cc1	> 30.2 µM	> 30.2 µM	–
COc1ccc(/C(=N/O)c2ccccc2-c2nc3ccccc3c(=O)n2Nc2ccc([N+](=O)[O-])cc2[N+](=O)[O-])cc1C	> 200 µM	43.7 µM	–
Cn1c(=O)[nH]c(=O)c2[nH]c(=O)c(=O)n(C)c21	> 200 µM	> 200 µM	–
CC(NC1=NCCO1)c1ccsc1 (stereo unspecified)	> 200 µM	64.6 µM	–
CC(=O)Nc1ccc(OC(C)(C)C)cc1	> 1200 µM	> 1200 µM	–
CC(=O)[C-](C)C(C)=O.CC(=O)[C-](C)C(C)=O.NCCNCCNC(=O)c1cccc2nc3ccccc3nc12.[Cl-].[Co+3]	> 151 µM	31.6 µM	–
NC(=S=O)C(F)(F)C(F)(F)C(F)(F)F	> 105 µM	89.1 µM	–
N#CCc1nc2c(s1)C(=O)c1ccccc1C2=O	> 7.94 µM	> 7.94 µM	–
O=C(O)c1c(O)c2cc([N+](=O)[O-])ccc2oc1=O	> 324 µM	> 324 µM	–
CCCCCC=C(c1cc(Cl)c(OC)c(C(=O)N(C)C)c1)c1cc(Cl)c(OC)c(C(=O)N(C)C)c1	> 36.3 µM	21.4 µM	–
CCOC(=O)N1CCNCCN(C(=O)OCC)CCNCC1	> 200 µM	> 200 µM	–
COc1ccc([C@H]2[C@H]3COC(=O)[C@H]3C(C#N)=C3Sc4ccccc4N32)cc1	> 200 µM	12.9 µM	–
